Measured values taken from patent US20230285292A1, “COMPOSITIONS AND METHODS OF USING A PLA2-RESPONSIVE DRUG DELIVERY SYSTEM” (THE TRUSTEES OF THE UNIVERSITY OF PENNSYLVANIA, priority 2020, published 2023).

Columns and labels:
[1] = tested on: chronic constriction of the sciatic nerve; conditions: intrathecal, given 1 day after chronic constriction of the sciatic nerve, only under daily repeated dosing; cited from earlier work
[2] = Toxicity in mice after 2-month serial intra-articular injections; assay type: in vivo, mouse
Text: After 2 months treatment for DMM mice, some major organs (kidney, liver, lung, heart, and spleen) and blood were collected. Tissue sections were stained with hematoxylin and eosin (H&E) to assess the effects of different treatment on mouse organ morphology.

[3] = tested on: DMM-induced OA knee joints; assay: DMM surgery-induced OA model, von Frey pain analysis; assay type: in vivo, mouse; conditions: DMM knees; from 2 weeks post-surgery throughout experimental period
Text: To induce mouse OA that mimics chronic OA in human patients, male mice at 3 months of age were subjected to DMM surgery at right knees and sham surgery at left knees. Briefly, in DMM surgery, the joint capsule was opened immediately after anesthesia and the medial meniscotibial ligament was cut to destabilize the meniscus without damaging other tissues. In Sham surgery, the joint capsule was opened in the same fashion but without any further damage. […] For DMM surgical OA model, the first injection was performed immediately after surgery. Injections were then repeated every 2 weeks for 2 or 4 months. In total, there are 4 injections for the 2 months group and 8 injections for 4 months group. For load-induced OA model, injections (i.a.) were performed immediately and at 48 hours after loading. There are 2 injections in total for each mouse in this model. The knee joint pain after DMM surgery or loading injury was evaluated in mice weekly before and after surgery using von Frey filaments as described previously(38). An individual mouse was placed on a wire-mesh platform (Excellent Technology Co.) under a 4×3×7 cm cage to restrict their move. […] The threshold force required to elicit withdrawal of the paw (median 50% withdrawal) was determined five times on each hind paw with sequential measurements separated by at least 5 minutes.

[4] = tested on: load-induced OA knee joints; assay: Single load-induced PTOA model, histology and TUNEL; assay type: in vivo, mouse; conditions: 6 N or 9 N loading, two weeks
Text: To induce mouse OA that is noninvasive and mimics post-traumatic OA in human patients, male mice (2 months old) were subjected mechanic loading at the right knees and sham loading at left knees. Briefly, under anesthesia, the right tibiae were positioned with the knee downward in deep flexion between custom-made cups and subjected to axial compressive loads with a peak force of 6 or 9 Newtons (N) with a 0.5 N preload force to maintain the limb in position between loading cycles. Cyclic loads were applied for 0.34 s with a rise and fall time each of 0.17 s and a baseline hold time of 10 s between cycles for 60 cycles. The uninjured left knees were used as controls. […] For DMM surgical OA model, the first injection was performed immediately after surgery. Injections were then repeated every 2 weeks for 2 or 4 months. In total, there are 4 injections for the 2 months group and 8 injections for 4 months group. For load-induced OA model, injections (i.a.) were performed immediately and at 48 hours after loading. There are 2 injections in total for each mouse in this model. […] Cartilage injury length was measured in Safranin 0/Fast green stained paraffin sections. […] According to these histological changes, it is possible to identify the demarcation between the normal and injured cartilage tissue, and the length of the cartilage lesion range was measured. […]

[5] = tested on: DMM-induced OA knee joints; assay: DMM surgery-induced OA model, histology and microCT; assay type: in vivo, mouse; conditions: for morphology and structure of articular cartilage / cartilage degeneration: intra-articular injection once every two weeks starting immediately after DMM, 2 and 4 months
Text: To induce mouse OA that mimics chronic OA in human patients, male mice at 3 months of age were subjected to DMM surgery at right knees and sham surgery at left knees. Briefly, in DMM surgery, the joint capsule was opened immediately after anesthesia and the medial meniscotibial ligament was cut to destabilize the meniscus without damaging other tissues. In Sham surgery, the joint capsule was opened in the same fashion but without any further damage. […] For DMM surgical OA model, the first injection was performed immediately after surgery. Injections were then repeated every 2 weeks for 2 or 4 months. In total, there are 4 injections for the 2 months group and 8 injections for 4 months group. For load-induced OA model, injections (i.a.) were performed immediately and at 48 hours after loading. There are 2 injections in total for each mouse in this model. After euthanasia, mouse knee joints were harvested and fixed in 4% paraformaldehyde overnight followed by decalcification in 0.5 M EDTA (pH 7.4) for 4 weeks prior to paraffin embedding. A serial of 6 μm-thick sagittal sections (about 100) were cut across the entire medial compartment of the joint until ACL junction. […] The final measurement is an average of these three sections. We defined uncalcified cartilage as the area from articular surface to the tide mark and calcified cartilage as the area from tide mark to cement line. The method to measure Mankin Score was described previously(37). Briefly, two sections within every consecutive six sections in the entire section set for each knee were stained with Safranin 0/Fast green and scored by two blinded observers. Each knee received a single score representing the maximal score of its sections. Synovitis score grading was carried out in 6-μm paraffin sections of sagittal mouse knee sections stained with H&E. The following basic morphological parameters of synovitis were included: (i) hyperplasia/enlargement of synovial lining layer, (ii) degree of inflammatory infiltration and (iii) activation of resident cells/synovial stroma, including fibroblasts, endothelial cells, histiocytes, macrophages, and multinucleated giant cells. All parameters are graded from 0 (absent), 1 (slight), 2 (moderate) to 3 (strong positive). The distal femur of mouse knee joints was scanned at a 6-μm isotropic voxel size with a microCT 35 scanner (Scanco Medical AG, Brüttisellen, Switzerland). All images were smoothened by a Gaussian filter (sigma=1.2, support=2.0). Measurement of SBP thickness was described previously(39). […] The region of interest (ROI) was circled and the average SBP thickness within ROI is calculated by average grey value/255*max scale bar value. […]

[6] = tested on: load-induced OA knee joints; assay: Single load-induced PTOA model, von Frey pain analysis; assay type: in vivo, mouse; conditions: 6 N or 9 N loading
Text: To induce mouse OA that is noninvasive and mimics post-traumatic OA in human patients, male mice (2 months old) were subjected mechanic loading at the right knees and sham loading at left knees. Briefly, under anesthesia, the right tibiae were positioned with the knee downward in deep flexion between custom-made cups and subjected to axial compressive loads with a peak force of 6 or 9 Newtons (N) with a 0.5 N preload force to maintain the limb in position between loading cycles. Cyclic loads were applied for 0.34 s with a rise and fall time each of 0.17 s and a baseline hold time of 10 s between cycles for 60 cycles. The uninjured left knees were used as controls. […] For DMM surgical OA model, the first injection was performed immediately after surgery. Injections were then repeated every 2 weeks for 2 or 4 months. In total, there are 4 injections for the 2 months group and 8 injections for 4 months group. For load-induced OA model, injections (i.a.) were performed immediately and at 48 hours after loading. […] The knee joint pain after DMM surgery or loading injury was evaluated in mice weekly before and after surgery using von Frey filaments as described previously(38). […] The threshold force required to elicit withdrawal of the paw (median 50% withdrawal) was determined five times on each hind paw with sequential measurements separated by at least 5 minutes.

Row | Structure (SMILES) | behavioral sensitivity [1] | blood parameters (hematology, renal and liver function, serum electrolytes) ([2]; 2-month serial injections) | histopathology of liver, spleen, kidney, lung, heart and knee joint ([2]; two months after serial intra-articular injections) | mechanical threshold / OA pain (von Frey) [3] | length of cartilage injury [4] | synovitis scores [4] | increase of SBP thickness at femoral medial site compared to sham joints ([5]; 4 months after DMM surgery) | increase in synovitis score compared with sham knees ([5]; DMM knees, 2-month treatment) | morphology and structure of articular cartilage / cartilage degeneration [5] | morphology and structure of articular cartilage / cartilage degeneration ([5]; listed as free sPLA2i) | pain threshold / OA pain (von Frey) [6]
1 | CCCCC/C=C\C/C=C\C/C=C\C/C=C\CCCC(=O)C(F)(F)F [AACOCF3] | reduces behavioral sensitivity |  |  |  |  |  |  |  |  |  | 
2 | CCCCCCCCCCCCCCCCSCC(COP(=O)([O-])OCC[N+](C)(C)C)NC(=O)CCCCCCCCCCCCCCC (centres unmarked) [sPLA2i, 1-Palmitylthio-2-palmitoylamido-1,2-dideoxy-sn-glycero-3-phosphorylcholine] |  | no significant difference | did not observe any histopathological abnormalities | did not alter the OA pain | significant damage areas | significant synovitis | 1.31 fold | more than 10 fold | did not have a protective effect | not observed | experienced OA pain
